Tests used:
[1] = system: patients carrying the mutation m.3243A>G in the mitochondrial DNA; assay: Khenergy phase 2 trial: Beck Depression Inventory-II (BDI); type: in vivo, human
Text: (§1) The Khenergy trial (clinicaltrial.gov identifier NCT02909400) was a double blind, randomized, placebo-controlled, single-centre, two-way cross-over trial. Twenty patients, with a confirmed mitochondrial DNA tRNALeu(UUR) m.3243A>G mutation and with clinical signs of mitochondrial disease, were randomized over 2 groups (active or placebo first). After a screening period and a training session, each group had 2 dosing periods of 28 days, with a washout period of at least 28 days in between. On these occasions (i.e. during the dosing periods), patients received 100 mg KH176 twice daily (treatment A) or a matching placebo (treatment B) twice daily for 28 days. Clinical assessments were performed once in a training session prior to baseline, at baseline and in week 4 post dosing during each treatment phase (A and B). Testing conditions and circumstances, with respect to timing of the assessments, hospitalization and meals, were standardized for each assessment period. Furthermore, assessments of biomarkers for mitochondrial functioning, pharmacokinetics and specific safety assessments were performed weekly. Trial results have been published (Janssen, Koene, De Laat, et al., 2018)
The effect of KH176 on depression symptoms in patients carrying the mutation m.3243A>G in the mitochondrial DNA was evaluated with the Beck Depression Inventory-II (BDI) score and Hospital Anxiety and Depression Scale (HADS) during the Khenergy phase 2 clinical trial (clinicaltrial.gov identifier NCT02909400). […] This observation was supported by a positive trend in the Hospital Anxiety and Depression Scale (effect size, −1.9 (95% Cl, −3.6 to −0.2); P=0.03).

[2] = system: patients who suffer from chronic migraine; assay: Khenergy phase 2 trial: patient-reported migraine and headache; type: in vivo, human
Text: as §1
Two patients from the Khenergy Phase 2 clinical trial have spontaneously reported a decreased frequency of migraine event during the treatment period with KH176 (reported before unblinding of the study). A third patient retrospectively reported that they had more migraines during the placebo treatment period over the KH176 treatment period.

[3] = 100 mg KH176 twice daily for 28 days vs matching placebo, cross-over

**Q.** For Cc1c(C)c2c(c(C)c1O)CC[C@@](C)(C(=O)N[C@@H]1CCCNC1)O2 [KH176], which “Beck Depression Affective Subscale, effect size, comparison KH176-Placebo” value [1, 3] is on record?
**A.** Its value is −1.1.

**Q.** What about the “Beck Depression Inventory total score, effect size, comparison KH176-Placebo” value [1, 3] of the same compound?
**A.** The value was −2.9.

**Q.** And the “effect on depression symptoms (in words)” value ([1]; KHENERGY trial, mitochondrial disease patients)?
**A.** The value was “significantly reduce depression symptoms”.

**Q.** And the “effect on migraine events (in words)” value ([2]; KHENERGY trial, patients who previously chronically suffered from migraine, KH176 treatment period)?
**A.** Its value is “reduction of the intensity and number of migraine events”.

**Q.** And the “headache during the 4 weeks of KH176” value ([2]; Patient A, before: severe headaches every day, migraine 2 times a week)?
**A.** Its value is “NO headache”.

**Q.** And the “patients with a positive effect on migraine” value ([2]; patients of the trial who suffer from chronic migraine)?
**A.** The value was 3 out of 3.

— patent US12208090B2, “Compounds for use in treating depression and migraine” (Khondrion IP B.V., priority 2017, dated 2025)
